From patent publication US7691601B2, “Medium for detecting and/or identifying of microorganisms” (priority 2003, dated 2010)

Assays:
[1] = test system: Staphylococcus aureus strains; experiment: Coloration of Staphylococcus aureus colonies, castanospermine medium; format: cell-based; parameters: key to Colonies coloration: 0=no coloration; 0.5=trace of coloration; 1=weak coloration; 2=strong coloration; settings: for Colonies coloration: Table 6
Description: (§1) Seeding of Salmonella bacteria: 10 μl of stools are deposited onto a Petri dish, this stool suspension is mixed or not mixed with 10 μl of a suspension of Salmonella (0.5 McF) and isolated as 3 dials on a Petri dish. Various […] and various Salmonella strains originating from the applicant's collection are used according to this protocol. The Petri dishes are incubated at 37° C. for 24 hours. The appearance of a coloration at the point of deposit of the stool (“deposit” column) and at the Salmonella colony (“colony” column) is read according to a semi-quantitative scale: • 0=no coloration • 0.5=trace of coloration • 1=weak coloration • 2=strong coloration The results obtained are given in Table 1.
(§2) Preparation of the detection medium: 250 ml of the medium of Example 1, in which the O,O-diethyl p-nitrophenyl phosphate is replaced with various concentrations of castanospermine: 0, 1, 2, 4 and 8 g/l, are prepared according to the method of Example 1.
(§3) The various detection media thus obtained are poured into Petri dishes.
(§4) Seeding of Staphylococcus aureus strains: The Petri dishes are inoculated, incubated and read as in Example 1.

[2] = Colonies column read for stool without added strain, castanospermine medium; parameters: key: 0=no coloration; 0.5=trace of coloration; 1=weak coloration; 2=strong coloration; settings: Table 6, no strain
Description: as §1, §2, §3, §4

[3] = test system: free α-glucosidase in a sample (stools); experiment: Coloration at the point of deposit of the stool, castanospermine medium; format: biochemical; parameters: key to Deposit coloration: 0=no coloration; 0.5=trace of coloration; 1=weak coloration; 2=strong coloration; settings: for Deposit coloration: Table 6
Description: as §1, §2, §3, §4

[4] = 1 g/l, stool A, Staphylococcus aureus No. 1
[5] = 1 g/l, stool B, Staphylococcus aureus no 2
[6] = 2 g/l, stool A, Staphylococcus aureus No. 1
[7] = 2 g/l, stool B, Staphylococcus aureus no 2
[8] = 4 g/l, stool A, Staphylococcus aureus No. 1
[9] = 4 g/l, stool B, Staphylococcus aureus no 2
[10] = 8 g/l, stool A, Staphylococcus aureus No. 1
[11] = 8 g/l, stool B, Staphylococcus aureus no 2

Substance: castanospermine
- Enzymes originating from the bacteria ([1]; Staphylococcus aureus colonies, summary in words): not inhibited
- Colonies coloration [1, 4]: 2
- Colonies coloration [1, 5]: 2
- Colonies coloration [1, 6]: 2
- Colonies coloration [1, 7]: 2
- Colonies coloration [1, 8]: 2
- Colonies coloration [1, 9]: 2
- Colonies coloration [1, 10]: 1
- Colonies coloration [1, 11]: 1
- Colonies coloration ([2]; 1 g/l, stool A): 0
- Colonies coloration ([2]; 1 g/l, stool B): 0
- Colonies coloration ([2]; 2 g/l, stool A): 0
- Colonies coloration ([2]; 2 g/l, stool B): 0
- Colonies coloration ([2]; 4 g/l, stool A): 0
- Colonies coloration ([2]; 4 g/l, stool B): 0
- Colonies coloration ([2]; 8 g/l, stool A): 0
- Colonies coloration ([2]; 8 g/l, stool B): 0
- Deposit coloration [3, 4]: 2
- Deposit coloration ([3]; 1 g/l, stool A, no strain): 1
- Deposit coloration [3, 5]: 2
- Deposit coloration ([3]; 1 g/l, stool B, no strain): 0.5
- Deposit coloration [3, 6]: 1
- Deposit coloration ([3]; 2 g/l, stool A, no strain): 1
- Deposit coloration [3, 7]: 1
- Deposit coloration ([3]; 2 g/l, stool B, no strain): 0.5
- Deposit coloration [3, 8]: 1
- Deposit coloration ([3]; 4 g/l, stool A, no strain): 0.5
- Deposit coloration [3, 9]: 0.5
- Deposit coloration ([3]; 4 g/l, stool B, no strain): 0
- Deposit coloration [3, 10]: 1
- Deposit coloration ([3]; 8 g/l, stool A, no strain): 0
- Deposit coloration [3, 11]: 0
- Deposit coloration ([3]; 8 g/l, stool B, no strain): 0
- Aspecific enzymatic reactions due to the presence of free enzymes ([3]; stools, Staphylococcus aureus identification, summary in words): greatly inhibited
